What all share (type): cell-based
For one assay, the target named is T1, hNLRP3 (Homo sapiens, UniProt Q96P20).
T1 construct: THP-1 cells were purchased from the American Type Culture Collection; host or cells: THP-1 cells, PMA-differentiated
Kind of assay: hNLRP3 agonist assay: IL-1β production in PMA-differentiated THP-1 cells (ELISA). The settings on record: Table 2, 4 hours, IL-1β by ELISA. On the procedure: THP-1 cells were purchased from the American Type Culture Collection and sub-cultured according to instructions from the supplier. Prior to experiments, cells were cultured in RPMI 1640 containing 10% heat inactivated FBS, penicillin (100 units/ml) and streptomycin (100 μg/ml), and maintained in log phase prior to experimental setup. Prior to the experiment THP-1 were treated with PMA (Phorbol 12-myristate 13-acetate) (10 μg/ml) for 24 hours. The day of the experiment the media was removed and attaching cells were treated with trypsin for 2 minutes, cells were then collected, washed with PBS (phosphate buffer saline), spin down, resuspended in 2% heat inactivated FBS with RPMI at a concentration of 1×10^6 cells/ml, and 100 μl was plated in a 96 well plate. Cells were incubated with compounds for 4 hours. Cell free supernatant was collected and the production of IL-1β was evaluated by ELISA. Compounds were dissolved in dimethyl sulfoxide (DMSO) and added to the culture medium to achieve desired concentration (e.g. 100, 30, 10, 3, 1, 0.3 or 0.1 μM). A vehicle only control was run concurrently with each experiment. Final DMSO concentration was 1%.
Background: ELISA stands for enzyme-linked immunosorbent assay.

The next assay deals with T2, TLR8 (Homo sapiens, UniProt Q9NR97).
T2 sequence (Q9NR97 27-1041): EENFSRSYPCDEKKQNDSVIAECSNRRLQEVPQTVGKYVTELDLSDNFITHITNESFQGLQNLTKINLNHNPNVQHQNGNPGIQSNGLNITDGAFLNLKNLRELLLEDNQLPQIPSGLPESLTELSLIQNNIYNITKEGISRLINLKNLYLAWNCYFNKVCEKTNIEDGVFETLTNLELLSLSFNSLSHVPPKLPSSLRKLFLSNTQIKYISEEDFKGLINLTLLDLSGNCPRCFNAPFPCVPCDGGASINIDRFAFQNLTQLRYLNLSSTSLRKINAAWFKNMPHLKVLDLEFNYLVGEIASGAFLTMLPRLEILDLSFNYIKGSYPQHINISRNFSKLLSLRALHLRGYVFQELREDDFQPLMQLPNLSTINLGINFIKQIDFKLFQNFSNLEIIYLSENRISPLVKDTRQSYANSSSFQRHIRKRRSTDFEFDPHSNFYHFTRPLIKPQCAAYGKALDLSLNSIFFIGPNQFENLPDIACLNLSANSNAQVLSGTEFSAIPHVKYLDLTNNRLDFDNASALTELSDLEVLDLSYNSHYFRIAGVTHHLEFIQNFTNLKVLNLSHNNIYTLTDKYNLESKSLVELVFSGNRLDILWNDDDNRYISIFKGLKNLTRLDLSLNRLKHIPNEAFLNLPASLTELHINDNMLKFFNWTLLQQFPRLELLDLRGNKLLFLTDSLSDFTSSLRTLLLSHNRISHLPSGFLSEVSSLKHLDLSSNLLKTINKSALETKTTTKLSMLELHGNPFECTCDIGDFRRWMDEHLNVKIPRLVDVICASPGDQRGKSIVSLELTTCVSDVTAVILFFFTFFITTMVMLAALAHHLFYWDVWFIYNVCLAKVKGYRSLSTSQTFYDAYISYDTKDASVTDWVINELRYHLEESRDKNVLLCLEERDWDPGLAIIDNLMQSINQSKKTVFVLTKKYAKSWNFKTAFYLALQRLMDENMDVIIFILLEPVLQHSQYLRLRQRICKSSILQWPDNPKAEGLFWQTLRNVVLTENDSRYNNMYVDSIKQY
Kind of assay: TLR8 EC50 assay. The settings on record: Table 2.

For the next assay, the target named is T3, TLR7 (Homo sapiens, UniProt Q9NYK1).
T3 sequence (Q9NYK1 27-1049): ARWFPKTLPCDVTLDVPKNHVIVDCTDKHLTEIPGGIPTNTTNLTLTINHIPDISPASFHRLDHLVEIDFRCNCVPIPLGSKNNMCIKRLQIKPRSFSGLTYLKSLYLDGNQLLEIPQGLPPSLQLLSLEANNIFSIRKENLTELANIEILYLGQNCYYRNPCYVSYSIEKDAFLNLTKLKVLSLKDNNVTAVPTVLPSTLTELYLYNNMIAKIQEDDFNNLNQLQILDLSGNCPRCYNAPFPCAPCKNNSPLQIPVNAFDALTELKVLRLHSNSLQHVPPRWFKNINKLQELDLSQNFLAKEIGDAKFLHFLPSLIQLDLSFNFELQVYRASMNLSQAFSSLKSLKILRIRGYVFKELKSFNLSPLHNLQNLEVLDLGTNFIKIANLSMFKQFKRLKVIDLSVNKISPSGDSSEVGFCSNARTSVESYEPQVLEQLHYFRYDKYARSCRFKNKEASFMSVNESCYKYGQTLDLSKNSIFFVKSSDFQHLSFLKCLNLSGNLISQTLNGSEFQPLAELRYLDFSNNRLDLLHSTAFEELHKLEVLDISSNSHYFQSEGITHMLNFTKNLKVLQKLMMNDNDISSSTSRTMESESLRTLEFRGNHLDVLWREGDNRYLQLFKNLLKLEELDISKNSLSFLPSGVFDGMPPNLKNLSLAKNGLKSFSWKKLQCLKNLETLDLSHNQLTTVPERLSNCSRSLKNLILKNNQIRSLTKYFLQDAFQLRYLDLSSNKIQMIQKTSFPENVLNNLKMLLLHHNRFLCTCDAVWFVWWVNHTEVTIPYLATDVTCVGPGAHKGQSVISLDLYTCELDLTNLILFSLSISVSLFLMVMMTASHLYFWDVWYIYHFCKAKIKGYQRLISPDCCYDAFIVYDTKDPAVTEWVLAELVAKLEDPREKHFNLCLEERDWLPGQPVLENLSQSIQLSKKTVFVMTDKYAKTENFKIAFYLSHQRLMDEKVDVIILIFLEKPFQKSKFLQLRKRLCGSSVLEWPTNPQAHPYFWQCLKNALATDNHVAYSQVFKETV
Put plainly: TLR7 EC50 assay. The settings on record: Table 2.

T1 sequence (Q96P20 whole entry): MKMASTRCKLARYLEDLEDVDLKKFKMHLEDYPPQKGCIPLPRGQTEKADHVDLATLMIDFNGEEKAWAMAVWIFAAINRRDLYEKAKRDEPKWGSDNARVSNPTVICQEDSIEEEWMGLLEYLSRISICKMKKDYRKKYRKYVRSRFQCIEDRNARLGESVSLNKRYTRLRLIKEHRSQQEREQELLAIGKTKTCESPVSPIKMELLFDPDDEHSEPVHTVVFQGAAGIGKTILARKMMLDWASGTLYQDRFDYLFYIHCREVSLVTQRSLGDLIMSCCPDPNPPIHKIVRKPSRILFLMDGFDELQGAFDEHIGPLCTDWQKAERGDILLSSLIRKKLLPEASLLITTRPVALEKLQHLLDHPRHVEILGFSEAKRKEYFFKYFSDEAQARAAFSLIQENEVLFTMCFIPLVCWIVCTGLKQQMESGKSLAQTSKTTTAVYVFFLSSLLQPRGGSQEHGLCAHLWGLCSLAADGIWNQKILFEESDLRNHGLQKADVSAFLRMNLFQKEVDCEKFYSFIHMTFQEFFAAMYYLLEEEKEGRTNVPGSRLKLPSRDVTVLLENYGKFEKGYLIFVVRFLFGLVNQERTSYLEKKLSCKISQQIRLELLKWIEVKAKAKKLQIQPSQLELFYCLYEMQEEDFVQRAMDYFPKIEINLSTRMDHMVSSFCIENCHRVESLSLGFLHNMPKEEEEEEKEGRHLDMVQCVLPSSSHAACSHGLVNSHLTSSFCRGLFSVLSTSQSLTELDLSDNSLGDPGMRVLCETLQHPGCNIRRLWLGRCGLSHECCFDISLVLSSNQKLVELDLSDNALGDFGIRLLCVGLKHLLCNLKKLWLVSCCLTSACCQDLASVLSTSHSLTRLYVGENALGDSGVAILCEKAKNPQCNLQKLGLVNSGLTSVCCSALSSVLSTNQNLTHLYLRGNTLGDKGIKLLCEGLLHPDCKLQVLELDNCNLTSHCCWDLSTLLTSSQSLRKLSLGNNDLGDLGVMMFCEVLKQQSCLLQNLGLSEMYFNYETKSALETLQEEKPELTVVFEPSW

A word on the EC50: it is the concentration needed to bring the measured effect to its halfway point. A higher EC50 goes with lower potency in that assay. Regarding `Nc1nc2cc(-c3nccs3)ccc2c2[nH]c(CCCO)nc12` [Compound 184, 3-[4-amino-7-(1,3-thiazol-2-yl)-1H-imidazo[4,5-c]quinolin-2-yl]propan-1-ol], the EC50 at hNLRP3, at TLR8 and on TLR7 was above 100 µM each time.
As to `Nc1nc2cc(-c3cc[nH]n3)ccc2c2[nH]c(CCCO)nc12` [Compound 189, 3-[4-amino-7-(1H-pyrazol-3-yl)-1H-imidazo[4,5-c]quinolin-2-yl]propan-1-ol], the figures for the EC50 on hNLRP3, at TLR8 and at TLR7 were at most 1 µM, above 100 µM and above 100 µM, respectively.
For `Cc1ccncc1-c1ccc2c(c1)nc(N)c1nc(CCCO)[nH]c12` [Compound 213, 3-[4-amino-7-(4-methylpyridin-3-yl)-1H-imidazo[4,5-c]quinolin-2-yl]propan-1-ol], the EC50 at hNLRP3 was above 100 µM; at TLR8, above 100 µM; at TLR7, 1 to 20 µM.
With `Nc1nc2cc(NC(=O)c3ccccc3)ccc2c2[nH]c(CCCO)nc12` [Compound 180, N-[4-amino-2-(3-hydroxypropyl)-1H-imidazo[4,5-c]quinolin-7-yl]benzamide], the EC50 at hNLRP3, at TLR8 and at TLR7 was above 100 µM in each case.
In the case of `CC(C(N)=O)c1ccc2c(c1)nc(N)c1nc(CCCO)[nH]c12` (stereo not drawn) [Compound 120], the EC50 on hNLRP3 was 1 to 20 µM; on TLR8, above 100 µM; on TLR7 it was above 100 µM.
On to `Cc1ncccc1-c1ccc2c(c1)nc(N)c1nc(CCCO)[nH]c12` [Compound 214, 3-[4-amino-7-(2-methylpyridin-3-yl)-1H-imidazo[4,5-c]quinolin-2-yl]propan-1-ol], for which the results for the EC50 at hNLRP3, at TLR8 and at TLR7 were above 100 µM, above 100 µM and 20 to 100 µM, respectively.
As for `CCN(C(=O)OC(C)(C)C)C(C)(C)c1nc2c(N)nc3cc(-c4cc[nH]n4)ccc3c2n1Cc1ccc(OC)cc1` [Compound 252], the EC50 was 1 to 20 µM on hNLRP3, above 100 µM at TLR8 and above 100 µM on TLR7.
As to `Nc1nc2cc(N3CCCC3=O)ccc2c2[nH]c(CCCO)nc12` [Compound 183, 1-[4-amino-2-(3-hydroxypropyl)-1H-imidazo[4,5-c]quinolin-7-yl]pyrrolidin-2-one], the results for the EC50 on hNLRP3, on TLR8 and at TLR7 were 20 to 100 µM, above 100 µM and above 100 µM, respectively.
In the case of `Nc1nc2cc(-c3ccccc3Cl)ccc2c2[nH]c(CCCO)nc12` [Compound 200, 3-[4-amino-7-(2-chlorophenyl)-1H-imidazo[4,5-c]quinolin-2-yl]propan-1-ol], the EC50 on hNLRP3, on TLR8 and at TLR7 was above 100 µM in each case.
For `Nc1nc2cc(-c3ccc(F)cc3)ccc2c2[nH]c(CCCO)nc12` [Compound 212, 3-[4-amino-7-(4-fluorophenyl)-1H-imidazo[4,5-c]quinolin-2-yl]propan-1-ol], the EC50 was above 100 µM on hNLRP3, 20 to 100 µM at TLR8 and above 100 µM at TLR7.
`COc1cccc(-c2ccc3c(c2)nc(N)c2nc(CCCOCc4ccccc4)[nH]c23)n1` [Compound 247]: the EC50 is 1 to 20 µM at hNLRP3, above 100 µM on TLR8 and above 100 µM on TLR7.
In the case of `COC(=O)CCn1c(CCCO)nc2c(N)nc3cc(Br)ccc3c21` [Compound 142], the EC50 is 1 to 20 µM at hNLRP3, above 100 µM on TLR8 and above 100 µM at TLR7.
As to `Nc1nc2cc(Br)c(F)cc2c2[nH]c(CCCO)nc12` [Compound 118], the values for the EC50 on hNLRP3, at TLR8 and on TLR7 were 1 to 20 µM, above 100 µM and above 100 µM, respectively.
As for `COc1ccccc1-c1ccc2c(c1)nc(N)c1nc(CCCO)[nH]c12` [Compound 201, 3-[4-amino-7-(2-methoxyphenyl)-1H-imidazo[4,5-c]quinolin-2-yl]propan-1-ol], the EC50 on hNLRP3, on TLR8 and on TLR7 was above 100 µM each time.
In the case of `Cc1ccc(-c2ccc3c(c2)nc(N)c2nc(CCCO)[nH]c23)cc1` [Compound 210, 3-[4-amino-7-(4-methylphenyl)-1H-imidazo[4,5-c]quinolin-2-yl]propan-1-ol], the EC50 on hNLRP3, at TLR8 and at TLR7 was above 100 µM in each case.
For the molecule `Nc1nc2cc(-c3cccnc3)ccc2c2[nH]c(CCCOCc3ccccc3)nc12` [Compound 146, 2-(3-phenylmethoxypropyl)-7-pyridin-3-yl-1H-imidazo[4,5-c]quinolin-4-amine], the results for the EC50 on hNLRP3, on TLR8 and on TLR7 were 20 to 100 µM, above 100 µM and above 100 µM, respectively.
On to `CCCn1cc(-c2ccc3c(c2)nc(N)c2nc(CCCOCc4ccccc4)[nH]c23)cn1` [Compound 152, 2-(3-phenylmethoxypropyl)-7-(1-propylpyrazol-4-yl)-1H-imidazo[4,5-c]quinolin-4-amine], for which the EC50 was 20 to 100 µM on hNLRP3, above 100 µM at TLR8 and above 100 µM at TLR7.
In the case of `Nc1nc2cc(-c3cnoc3)ccc2c2[nH]c(CCCO)nc12` [Compound 195, 3-[4-amino-7-(1,2-oxazol-4-yl)-1H-imidazo[4,5-c]quinolin-2-yl]propan-1-ol], the EC50 at hNLRP3, at TLR8 and on TLR7 was above 100 µM in each case.
As to `Cn1c(CCCO)nc2c3ccc(-n4cccn4)cc3nc(N)c21` [Compound 113], the EC50 at hNLRP3 was 1 to 20 µM; on TLR8, above 100 µM; on TLR7, above 100 µM.
For the molecule `Nc1nc2cc(-c3ccc[nH]c3=O)ccc2c2[nH]c(CCCOCc3ccccc3)nc12` [Compound 249], the EC50 is 1 to 20 µM at hNLRP3, above 100 µM at TLR8 and above 100 µM on TLR7.
Consider `Nc1nc2cc(-c3ccncc3)ccc2c2[nH]c(CCCO)nc12` [Compound 149], for which the values for the EC50 on hNLRP3, on TLR8 and on TLR7 were 1 to 20 µM, above 100 µM and above 100 µM, respectively.
`Nc1nc2cc(-c3cccs3)ccc2c2[nH]c(CCCO)nc12` [Compound 187, 3-(4-amino-7-thiophen-2-yl-1H-imidazo[4,5-c]quinolin-2-yl)propan-1-ol]: the results for the EC50 on hNLRP3, at TLR8 and on TLR7 were at most 1 µM, above 100 µM and above 100 µM, respectively.

Values taken from patent US11072612B2, “NLRP3 modulators” (INNATE TUMOR IMMUNITY, INC., priority 2016, dated 2021).
